Tests used:
[1] = tested on: K562 Human acute myelogenous leukemia; experiment: MTT cell proliferation inhibition, K562; format: cell-based; settings: K562, 72 hours
Experimental: (§1) Human cancer cells were purchased from ATCC. The cells were cultured in a culture medium according to the work instruction of ATCC. A dose-response curve was drawn by XL-fitting to determine an IC50 value of a compound. […] Cell proliferation inhibition could be detected by a MTT method (3-(4,5-Dimethylthiazol-2-yl)-2,5-diphenyltetrazolium bromide, and MTT; and 3-(4,5-dimethyl thiazole-2)-2,5-diphenyltertazolium bromide, and thiazolyl blue).
(§2) The cells were cultured in a culture dish first, and the cells in a logarithmic growth phase were inoculated into a 96-well plate (3,000 to 5,000 adherent cells/well, 10,000 to 30,000 suspended cells/well) according to a specific number, with 100 microliters per well, and then cultured in an incubator of 5% CO2 and 37° C. […] An absorbance of a general control group should be a normal value between 0.8 and 1.2. After obtaining absorbance data, a change curve of an inhibition rate was fitted by GraphPad Prism6.03 software and an IC50 value was calculated.
(§3) Calculation of drug inhibition rate: relative cell proliferation inhibition rate=[(control group A570−experimental group A570)/control group […], wherein A570 represented the absorbance at 570 nm.

[2] = tested on: MM1S Human myeloma cells; experiment: MTT cell proliferation inhibition, MM1S; format: cell-based; settings: MM1.S, 72 hours
Experimental: as §1, §2, §3

[3] = tested on: MV4-11 Human acute myelogenous leukemia; experiment: MTT cell proliferation inhibition, MV4-11; format: cell-based; settings: MV4-11, 72 hours
Experimental: as §1, §2, §3

[4] = tested on: Aspc-1 Human pancreatic cancer cells; experiment: MTT cell proliferation inhibition, Aspc-1; format: cell-based; settings: ASPC1, Aspc-1, 72 hours
Experimental: as §1, §2, §3

[5] = tested on: MGC-803 Human gastric cancer cells; experiment: MTT cell proliferation inhibition, MGC-803; format: cell-based; settings: MGC-803, 72 hours
Experimental: as §1, §2, §3

[6] = tested on: RPMI 8226 Human myeloma cells; experiment: MTT cell proliferation inhibition, RPMI 8226; format: cell-based; settings: RPMI 8226, 72 hours
Experimental: as §1, §2, §3

[7] = tested on: Karpas-299 Human anaplastic large cell lymphoma cells; experiment: MTT cell proliferation inhibition, Karpas-299; format: cell-based; settings: Karpas-299, 72 hours
Experimental: as §1, §2, §3

[8] = tested on: HGC-27 Human gastric cancer cells; experiment: MTT cell proliferation inhibition, HGC-27; format: cell-based; settings: HGC-27, 72 hours
Experimental: as §1, §2, §3

[9] = molecular target: T1, Ret (V804M) (h) (Homo sapiens, UniProt P07949, V804M); experiment: Radioisotope labeling kinase assay (Eurofins), Ret (V804M); format: biochemical
T1 construct: purchased Eurofins
Experimental: An activity to a human recombinant protein kinase of a series of compounds was determined by a radioisotope labeling method, which was provided by Eurofins Company. A compound to be detected was mixed with a corresponding protein kinase buffer (20 mM propyl sulfonate (MOPS, […].), 1 mM EDTA, 0.10 β-mercaptoethanol, 0.010 Brij-35, […], and 1 mg/mL BSA), the mixture was added into a reaction system (100 μM reaction substrate […], 8 mM MOPS with a pH value of 7.0, 10 mM MgAcetate, 0.2 mM EDTA, and a certain concentration of γ-^33P-ATP). After adding an MgATP composite solution, the reaction was started at room temperature for 40 minutes, and the reaction was terminated by adding 5 μl of […] solution. Then, 10 μl of reaction solution was dropwise added onto a filter and washed with 75 mM phosphoric acid solution for three times, 5 minutes each time, then washed with methanol once again, and dried and subjected to scintillation counting.

T1 sequence (P07949 29-1114 V804M): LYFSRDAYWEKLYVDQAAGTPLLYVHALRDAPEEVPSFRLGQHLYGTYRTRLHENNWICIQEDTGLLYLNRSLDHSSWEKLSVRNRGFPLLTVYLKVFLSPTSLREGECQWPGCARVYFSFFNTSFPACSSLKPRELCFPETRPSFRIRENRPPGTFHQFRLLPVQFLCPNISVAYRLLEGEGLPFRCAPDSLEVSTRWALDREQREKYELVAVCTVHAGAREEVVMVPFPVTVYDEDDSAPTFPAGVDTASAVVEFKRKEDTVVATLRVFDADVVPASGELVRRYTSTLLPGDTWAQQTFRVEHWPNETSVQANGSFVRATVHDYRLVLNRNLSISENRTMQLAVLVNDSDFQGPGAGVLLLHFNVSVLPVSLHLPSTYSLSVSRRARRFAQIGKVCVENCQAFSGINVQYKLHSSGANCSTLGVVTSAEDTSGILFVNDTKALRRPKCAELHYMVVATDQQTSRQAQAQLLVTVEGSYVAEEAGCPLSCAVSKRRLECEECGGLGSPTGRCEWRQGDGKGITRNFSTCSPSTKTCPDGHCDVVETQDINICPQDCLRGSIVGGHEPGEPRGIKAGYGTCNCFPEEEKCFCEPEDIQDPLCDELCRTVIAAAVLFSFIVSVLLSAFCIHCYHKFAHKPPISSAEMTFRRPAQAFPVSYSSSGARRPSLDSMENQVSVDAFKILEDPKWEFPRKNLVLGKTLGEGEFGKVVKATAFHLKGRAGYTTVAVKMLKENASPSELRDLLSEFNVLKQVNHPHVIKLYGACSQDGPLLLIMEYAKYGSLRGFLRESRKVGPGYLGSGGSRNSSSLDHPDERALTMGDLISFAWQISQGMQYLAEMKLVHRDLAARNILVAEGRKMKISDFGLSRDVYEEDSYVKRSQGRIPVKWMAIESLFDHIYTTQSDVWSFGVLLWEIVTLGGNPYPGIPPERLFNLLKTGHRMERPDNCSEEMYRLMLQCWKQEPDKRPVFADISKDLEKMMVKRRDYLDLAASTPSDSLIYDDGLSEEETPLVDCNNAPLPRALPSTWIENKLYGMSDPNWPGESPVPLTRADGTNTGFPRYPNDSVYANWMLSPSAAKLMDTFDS

Compound	IC50 [1] [nM]	IC50 [2] [nM]	IC50 [3] [nM]	IC50 [4] [nM]	IC50 [5] [nM]	IC50 [6] [nM]	IC50 [7] [nM]	IC50 [8] [nM]	IC50 [9] [nM]
O=C(/C=C/CN1CCOCC1)Nc1cc2cc(c1)Nc1nccc(n1)-c1cccc(c1)COC/C=C/COC2 [XVI-3]	2880	379	87	2480	2760	2040	1180	495	–
O=C(/C=C/CN1CCCC1)Nc1cc2cc(c1)Nc1nccc(n1)-c1cccc(c1)COC/C=C/COC2 [XVI-1]	470	92	30	689	573	463	133	110	–
C1=C/COCc2cccc(c2)-c2ccnc(n2)Nc2cc(cc(OC/C=C/CN3CCCC3)c2)COC/1 [XVI-12]	–	–	–	–	–	–	–	–	122
